Measurements taken from ChEMBL document CHEMBL1201862, “PubChem BioAssay data set” (2004).
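Values below derive from 48-hour exposures of cells grown in 96-well plates, with endpoints linearly interpolated between the two concentrations bracketing the appropriate inhibition level. Here, GI50 denotes the concentration required for 50% inhibition of growth.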 Activity calls are given as the source filed them. Rule as the data show it: active = GI50 up to about 1.1 µM and inactive = higher.

What was measured:
Assay in all cases: NCI-60 cell line screen, 48 h
[1] = system: SK-OV-3
[2] = system: SK-MEL-2
[3] = system: SK-MEL-28
[4] = system: HCC 2998
[5] = system: UO-31
[6] = system: RXF 393
[7] = system: TK-10
[8] = system: SW-620
[9] = system: BT-549
[10] = system: NCI-H23
[11] = system: IGROV-1
[12] = system: ACHN
[13] = system: SF-268
[14] = system: A549
[15] = system: K562
[16] = system: EKVX
[17] = system: PC-3
[18] = system: UACC-257
[19] = system: A498
[20] = system: OVCAR-5
[21] = system: MOLT-4
[22] = system: NCI/ADR-RES
[23] = system: SNB-75
[24] = system: LOX IMVI
[25] = system: MDA-N
[26] = system: CAKI-1
[27] = system: KM12
[28] = system: MDA-MB-435
[29] = system: MCF7
[30] = system: DU-145
[31] = system: SN12C
[32] = system: M14
[33] = system: SR
[34] = system: OVCAR-3
[35] = system: HT-29
[36] = system: T47D
[37] = system: HCT-15
[38] = system: MDA-MB-231
[39] = system: COLO 205
[40] = system: 786-0
[41] = system: HCT-116
[42] = system: UACC-62
[43] = system: SNB-19
[44] = system: SF-295
[45] = system: NCI-H460
[46] = system: HOP-92
[47] = system: SF-539
[48] = system: U-251
[49] = system: OVCAR-4
[50] = system: RPMI-8226
[51] = system: SK-MEL-5
[52] = system: NCI-H226
[53] = system: Malme-3M
[54] = system: OVCAR-8
[55] = system: NCI-H522
[56] = system: HOP-62
[57] = system: Hs-578T
[58] = system: CCRF-CEM
[59] = system: HL-60

Measured: GI50

C=C1C(=O)O[C@H]2[C@H](OC(C)=O)[C@@H](C)CCC/C(C)=C/CC[C@@]3(C)O[C@@H]3C[C@@H]12
active: [54] 0.885 µM | [58] 0.661 µM | [59] 0.398 µM
inactive: [1] 15.6 µM | [2] 6.01 µM | [3] 4.72 µM | [4] 5.27 µM | [5] 2.9 µM | [6] 1.87 µM | [7] 2.13 µM | [8] 2.58 µM | [9] 2.94 µM | [10] 4.04 µM | [11] 2.77 µM | [12] 1.72 µM | [13] 5.62 µM | [14] 7.35 µM | [15] 3.03 µM | [16] 3.42 µM | [17] 5.25 µM | [18] 5.06 µM | [19] 3.56 µM | [20] 8.26 µM | [21] 2.6 µM | [22] 1.59 µM | [23] 6.21 µM | [24] 1.86 µM | [25] 2.94 µM | [26] 2.19 µM | [27] 6.44 µM | [28] 3.24 µM | [29] 2.31 µM | [30] 2.32 µM | [31] 1.61 µM | [32] 4.23 µM | [33] 1.86 µM | [34] 4.97 µM | [35] 2.94 µM | [36] 1.6 µM | [38] 4.08 µM | [39] 3.19 µM | [40] 1.6 µM | [41] 2.23 µM | [42] 4.11 µM | [43] 13.6 µM | [44] 13.2 µM | [45] 5.26 µM | [46] 1.92 µM | [47] 1.95 µM | [48] 6.34 µM | [49] 3.55 µM | [50] 1.4 µM | [51] 4.19 µM | [52] 1.5 µM | [53] 16 µM | [55] 1.78 µM | [56] 15.6 µM | [57] 3.32 µM
2.31 µM: [37]

CC1=COC2=C(C)C(=O)C(=O)c3c(C)ccc1c32 [MANSONONE F]
inactive: [1] 15.8 µM | [2] 5.56 µM | [3] 14.2 µM | [4] 6.27 µM | [5] 14.7 µM | [6] 7.18 µM | [7] 42.1 µM | [8] 2.61 µM | [9] 14.2 µM | [10] 2.84 µM | [11] 3.74 µM | [12] 8.3 µM | [13] 4.44 µM | [14] 2.92 µM | [15] 3.66 µM | [16] 6.92 µM | [17] 2.49 µM | [18] 7.23 µM | [19] 20.1 µM | [20] 18.2 µM | [21] 2.56 µM | [22] 2.1 µM | [23] 9.06 µM | [24] 3.66 µM | [25] 1.78 µM | [26] 20.3 µM | [27] 3.93 µM | [28] 1.9 µM | [29] 2.69 µM | [30] 6.21 µM | [31] 3.71 µM | [32] 2.86 µM | [33] 3.45 µM | [35] 3.15 µM | [36] 8.24 µM | [38] 3.28 µM | [39] 2.55 µM | [40] 4.1 µM | [41] 2.61 µM | [42] 3.24 µM | [43] 4.07 µM | [44] 5.48 µM | [45] 2.18 µM | [46] 15.6 µM | [47] 3.21 µM | [48] 4.38 µM | [49] 2.77 µM | [50] 1.42 µM | [52] 14.4 µM | [53] 1.69 µM | [54] 2.7 µM | [55] 2.17 µM | [56] 4.52 µM | [57] 17.7 µM | [58] 2.98 µM | [59] 2.1 µM
active: [34] 0.349 µM | [51] 0.859 µM
2.43 µM: [37]
